These results are taken from publication PMC3082517 (PLoS Biology, 2011).

In assay [1] the target is T1, TrkA (Rattus norvegicus, UniProt P35739). As to the kind of experiment: TrkA phosphorylation in HEK293^TrkA transfectants (anti-tyrosine IP, Western blot). Format: cell-based. Set-up: expressed in transfected cells; host or cells: HEK293. Conditions: 10 min (and 20 min), steroids 100 nM, NGF 100 ng/ml. How it is done: HEK293 cells were transfected with the appropriate plasmids (TrkA, p75^NTR, RIP2, TRAF-6, and RhoGDI) by using Lipofectamine 2000 (Invitrogen). Cells were harvested 48 h after transfection and suspended in lysis buffer (50 mM Tris-HCl, 0.15 M NaCl, 1% Triton-X100, pH 7.4) supplemented with protease inhibitors. Lysates were precleared for 1 h with Protein A-Sepharose beads (Amersham) and immunoprecipitated with the appropriate antibody (pTyr, Flag, or c-myc) overnight at 4°C. Protein A Sepharose beads were incubated with the lysates for 4 h at 4°C with gentle shaking. […] Beads were collected by centrifugation, washed four times with lysis buffer, and resuspended in SDS loading buffer. Proteins were separated by SDS/PAGE, followed by immunoblotting with specific antibodies.
T1 sequence (P35739 33-799): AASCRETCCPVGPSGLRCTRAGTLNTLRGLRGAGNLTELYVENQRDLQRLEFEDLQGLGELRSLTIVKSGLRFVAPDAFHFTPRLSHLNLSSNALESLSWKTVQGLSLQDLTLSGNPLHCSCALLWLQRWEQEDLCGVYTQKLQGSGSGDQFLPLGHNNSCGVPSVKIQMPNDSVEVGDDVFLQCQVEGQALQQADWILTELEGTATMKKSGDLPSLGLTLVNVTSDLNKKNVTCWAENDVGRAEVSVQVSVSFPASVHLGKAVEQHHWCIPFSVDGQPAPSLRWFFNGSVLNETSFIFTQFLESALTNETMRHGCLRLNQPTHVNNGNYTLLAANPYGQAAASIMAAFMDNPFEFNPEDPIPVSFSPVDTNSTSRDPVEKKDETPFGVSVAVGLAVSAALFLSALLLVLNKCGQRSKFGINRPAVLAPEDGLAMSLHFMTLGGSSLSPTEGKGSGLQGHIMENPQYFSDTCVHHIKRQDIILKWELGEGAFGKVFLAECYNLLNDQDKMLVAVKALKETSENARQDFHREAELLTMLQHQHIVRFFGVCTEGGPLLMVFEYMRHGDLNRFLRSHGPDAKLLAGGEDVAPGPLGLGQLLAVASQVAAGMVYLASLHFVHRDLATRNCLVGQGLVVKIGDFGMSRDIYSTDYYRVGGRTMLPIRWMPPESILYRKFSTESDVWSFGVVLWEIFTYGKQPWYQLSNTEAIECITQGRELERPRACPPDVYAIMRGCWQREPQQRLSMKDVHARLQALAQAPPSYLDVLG
PC12 or HEK293 cells lysates were electrophoresed through a 12% SDS-polyacrylamide gel, and then proteins were transferred to nitrocellulose membranes, which were processed according to standard Western blotting procedures, as previously described. To detect protein levels, membranes were incubated with the appropriate antibodies: Bcl-2 (dilution 1∶500), phospho TrkA (dilution 1∶500), total TrkA (dilution1∶500), p75^NTR (dilution 1∶500), phospho Shc (dilution 1∶1000), total Shc (dilution 1∶1000), phospho Akt (dilution 1∶500), total Akt (dilution 1∶500), phospho ERK1/2 (dilution 1∶500), and total ERK1/2 (dilution 1∶500). Proteins were visualized using the ECL Western blotting kit (ECL Amersham Biosciences, UK), and blots were exposed to Kodak X-Omat AR films. A PC-based Image Analysis program was used to quantify the intensity of each band (Image Analysis, Inc., Ontario, Canada).
To normalize for protein content the blots were stripped and stained with GAPDH antibody (dilution 1∶1000); the concentration of each target protein was normalized versus GAPDH. Where phosphorylation of TrkA or kinases was measured, membranes were first probed for the phosphorylated form of the protein, then stripped, and probed for the total protein.

Assay [2] concerns the target T2, p75^NTR (Rattus norvegicus, UniProt P07174).
T2 construct: expressed in transfected cells; host or cells: HEK293
T2 sequence (P07174 30-425): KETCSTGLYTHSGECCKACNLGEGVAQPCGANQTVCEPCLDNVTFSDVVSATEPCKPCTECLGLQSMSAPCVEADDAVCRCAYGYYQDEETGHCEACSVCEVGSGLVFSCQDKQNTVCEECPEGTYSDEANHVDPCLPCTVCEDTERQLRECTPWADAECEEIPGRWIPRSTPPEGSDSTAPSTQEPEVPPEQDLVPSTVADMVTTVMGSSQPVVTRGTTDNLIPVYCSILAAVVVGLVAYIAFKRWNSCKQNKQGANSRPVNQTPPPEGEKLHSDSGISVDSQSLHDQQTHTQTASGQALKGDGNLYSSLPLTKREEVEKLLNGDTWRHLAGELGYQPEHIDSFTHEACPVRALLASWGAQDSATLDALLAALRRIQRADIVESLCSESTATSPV
Put plainly: Heterologous [3H]-DHEA displacement, HEK293^p75NTR cell membranes. The class given is binding. Particulars: for displacement of [3H]-DHEA binding (in words): competitor up to 1000 nM. (In general: Loss of bound radioactivity is the signal in a displacement assay; it reports binding, not function.)

In assay [3] the target is T1, TrkA. Put plainly: Heterologous [3H]-DHEA displacement, HEK293^TrkA cell membranes. Format: binding. Set-up: expressed in transfected cells; host or cells: HEK293.
The target in assay [4] is TrkA receptor. Conditions: extracellular and cytoplasmic juxtamembrane domains of TrkA; read-out: Kd of binding to TrkA receptor; cited from earlier work.
Assay [5] addresses p75NTR (Homo sapiens) (UniProt P08138). Conditions: cited from earlier work.
The target in assay [6] is T3, rat TrkA receptor expressed in HEK293 cells (HEK293^TrkA) (rat, UniProt P35739 33-799).
T3 construct: TrkA (NGF receptor tyrosine kinase), rat, expressed from the pHA vector backbone; source: HEK293, transfected (Lipofectamine 2000); crude membranes and whole cells
T3 sequence (P35739 33-799): as the sequence (P35739 33-799) above
Put plainly: radioligand binding; homologous [125I]-NGF displacement with unlabeled NGF on membranes isolated from HEK293^TrkA and HEK293^p75NTR transfectants. Conditions: one partner purified.

The target in assay [7] is T4, rat p75^NTR receptor expressed in HEK293 cells (HEK293^p75NTR) (rat, UniProt P07174 30-425).
T4 construct: also called p75 neurotrophin receptor; source: HEK293, transfected (Lipofectamine 2000); crude membranes, whole cells and lysate
T4 sequence (looked up): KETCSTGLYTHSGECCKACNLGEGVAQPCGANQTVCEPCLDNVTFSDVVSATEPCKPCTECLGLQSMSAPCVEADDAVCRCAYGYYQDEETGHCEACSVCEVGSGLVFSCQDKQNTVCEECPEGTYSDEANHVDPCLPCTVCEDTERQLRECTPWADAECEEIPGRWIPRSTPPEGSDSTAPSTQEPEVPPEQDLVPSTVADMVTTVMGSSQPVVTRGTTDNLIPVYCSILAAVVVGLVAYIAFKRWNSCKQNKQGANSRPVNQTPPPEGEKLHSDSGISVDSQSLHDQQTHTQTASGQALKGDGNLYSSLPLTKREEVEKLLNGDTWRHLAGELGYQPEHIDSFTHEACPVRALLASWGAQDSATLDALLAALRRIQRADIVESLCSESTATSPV
The assay is described as above. Particulars: one partner purified.

Assay [8] has as its target T3, rat TrkA receptor expressed in HEK293 …. As to the kind of experiment: radioligand binding; heterologous displacement of 1 nM [3H]-DHEA (a steroid) by unlabeled NGF (10^-12-10^-6 M) on membranes (2 mg/ml) of HEK293^TrkA and HEK293^p75NTR cells, PBS pH 7.4 with protease inhibitors, collected on GF/B filters. Particulars: one partner purified.
Assay [9] deals with T4, rat p75^NTR receptor expressed in …. The assay is described as above. Particulars: one partner purified.

Where a name gives a salt, the structure may show the parent alone. Read-outs that look alike come from different tables or passages of the source.

p75NTR (Homo sapiens), sequence (P08138 29-250): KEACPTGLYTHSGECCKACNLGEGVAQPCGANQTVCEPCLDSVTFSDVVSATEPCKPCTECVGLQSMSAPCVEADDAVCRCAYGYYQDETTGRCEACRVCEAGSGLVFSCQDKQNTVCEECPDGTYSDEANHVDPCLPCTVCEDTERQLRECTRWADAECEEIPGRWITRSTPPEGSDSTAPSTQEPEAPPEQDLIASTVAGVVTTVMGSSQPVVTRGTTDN

With `C[C@]12CC[C@H]3[C@@H](CCC4=CC(=O)CC[C@@]43C)[C@@H]1CC[C@@H]2O` [testosterone], in assay [1], the “phosphorylation of TrkA” value is listed as “unable to increase”. Also, the concentration for half-maximal inhibition (IC50) – broadly, the point on the concentration scale where inhibition reaches its midpoint – in assay [2] is 7.4 ± 3.2 nM; in [3], 5.3 ± 2.1 nM.
`C[C@]12CC[C@H](OS(=O)(=O)O)CC1=CC[C@@H]1[C@@H]2CC[C@]2(C)C(=O)CC[C@@H]12` [DHEAS, dehydroepiandrosterone sulfate]: the “phosphorylation of TrkA” value in assay [1] is “rapidly induced”. Besides, the IC50 in assay [2] (HEK293^p75NTR membranes, 1 nM [3H]-DHEA, read-out: IC50 of [3H]-DHEA displacement) worked out at 8.1 ± 1.2 nM; in [3] (HEK293^TrkA membranes, 1 nM [3H]-DHEA, read-out: IC50 of [3H]-DHEA displacement), 6.1 ± 1.1 nM.
For the molecule `C[C@@H]1C[C@H]2[C@@H]3CCC4=CC(=O)C=C[C@]4(C)[C@@]3(F)[C@@H](O)C[C@]2(C)[C@@]1(O)C(=O)CO` [dexamethasone], the “displacement of [3H]-DHEA binding (in words)” value in [2] (HEK293^p75NTR membranes) is “ineffective”.
Regarding `CN(C)CCC=C1c2ccccc2CCc2ccccc21` [amitriptyline], the Kd – broadly, a measure of binding affinity in units of concentration – in assay [4] is 3000 nM.
`C[C@]12CC[C@@H]3c4ccc(O)cc4CC[C@H]3[C@@H]1CC[C@@H]2O` [Estradiol]: the “displacement of [3H]-DHEA binding (in words)” value in assay [2] (HEK293^p75NTR membranes) was “failed to displace”; in [3] (HEK293^TrkA membranes, competitor 0.1 to 1000 nM) it was “failed to displace”.
NGF (from UniProt P01138): the Kd in assay [5] was 1 nM.
Take `CC(C)=CCC[C@]1(C)C=Cc2c(O)c3c(c(CC=C(C)C)c2O1)O[C@]12C(=C[C@@H]4CC1C(C)(C)O[C@@]2(C/C=C(/C)C(N)=O)C4=O)C3=O` [gambogic amide]: the Kd in assay [4] was 75 nM.

B1: nerve growth factor (NGF), unlabeled (ligand, UniProt P01139 122-241, looked up)
chain: SSTHPVFHMGEFSVCDSVSVWVGDKTTATDIKGKEVTVLAEVNINNSVFRQYFFETKCRASNPVESGCRGIDSKHWNSYCTTTHTFVKALTTDEKQAAWRFIRIDTACVCVLSRKATRRG
notes: nerve growth factor (NGF); The species of the NGF is told nowhere; also called unlabeled NGF
On to B1, for which the IC50 in assay [6] worked out at 0.3 ± 0.09 nM; in assay [7], 1.7 ± 0.38 nM; in assay [8] it was 0.8 ± 0.2 nM; in assay [9] it was 1.19 ± 0.45 nM.
